Earlier results on one compound are cited in patent publication US20120201889A1, “MODIFIED AND IMMEDIATE RELEASE FORMULATIONS OF MEMANTINE” (Forest Laboratories Holdings Ltd., priority 2005, published 2012).

For the series the following is noted: after oral administration.

Turning to `CC12CC3CC(C)(C1)CC(N)(C3)C2` [memantine, 1-amino-3,5-dimethyladamantane], the absolute bioavailability entry is “approximately 100%”.
